From PubChem BioAssay (NCI)
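All cell lines were grown in 96-well plates and treated with compound for 48 hours. GI50 is the concentration that inhibits growth by half. TGI marks complete inhibition of growth.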

Columns and labels:
Test in all cases: NCI tumour cell line growth inhibition, 48 h
786-0 renal = system: 786-0 renal
A498 renal = system: A498 renal
A549 NSCLC = system: A549 NSCLC
ACHN renal = system: ACHN renal
BT-549 breast = system: BT-549 breast
CAKI-1 renal = system: CAKI-1 renal
CCRF-CEM leukemia = system: CCRF-CEM leukemia
COLO 205 colon = system: COLO 205 colon
DU-145 prostate = system: DU-145 prostate
EKVX NSCLC = system: EKVX NSCLC
HCC-2998 colon = system: HCC-2998 colon
HCT-116 colon = system: HCT-116 colon
HCT-15 colon = system: HCT-15 colon
HL-60(TB) leukemia = system: HL-60(TB) leukemia
HOP-62 NSCLC = system: HOP-62 NSCLC
HOP-92 NSCLC = system: HOP-92 NSCLC
HS 578T breast = system: HS 578T breast
HT29 colon = system: HT29 colon
IGROV1 ovarian = system: IGROV1 ovarian
K-562 leukemia = system: K-562 leukemia
KM12 colon = system: KM12 colon
LOX IMVI melanoma = system: LOX IMVI melanoma
M14 melanoma = system: M14 melanoma
MALME-3M melanoma = system: MALME-3M melanoma
MCF7 breast = system: MCF7 breast
MDA-MB-231 breast = system: MDA-MB-231 breast
MDA-MB-435 = system: MDA-MB-435
MOLT-4 leukemia = system: MOLT-4 leukemia

Cc1cc2nc3c4ccccc4n(CCN(C)C)c3nc2cc1C showed a GI50 (786-0 renal) of 1.97 µM, a TGI (786-0 renal) of 12.2 µM and a GI50 (A498 renal) of 1.43 µM. It also gave a TGI (A498 renal) of 2.86 µM, a GI50 (A549 NSCLC) of 1.28 µM and a TGI (A549 NSCLC) of 11.5 µM. The GI50 (ACHN renal) was 0.555 µM, the TGI (ACHN renal) was 11.3 µM and the GI50 (BT-549 breast) was 2.07 µM. For the same molecule, the TGI (BT-549 breast) was 6.25 µM, the GI50 (CAKI-1 renal) was 0.982 µM and the TGI (CAKI-1 renal) was 12.2 µM. It also gave a GI50 (CCRF-CEM leukemia) of 1.99 µM, a TGI (CCRF-CEM leukemia) of 13.6 µM and a GI50 (COLO 205 colon) of 1.29 µM. The TGI (COLO 205 colon) was 4.49 µM, the GI50 (DU-145 prostate) was 2.07 µM and the TGI (DU-145 prostate) was 11.8 µM. For the same molecule, the GI50 (EKVX NSCLC) was 2.23 µM, the TGI (EKVX NSCLC) was 7.32 µM and the GI50 (HCC-2998 colon) was 1.47 µM. It also gave a TGI (HCC-2998 colon) of 4.13 µM, a GI50 (HCT-116 colon) of 0.488 µM and a TGI (HCT-116 colon) of 11.3 µM. The GI50 (HCT-15 colon) was 1.77 µM, the TGI (HCT-15 colon) was 10.4 µM and the GI50 (HL-60(TB) leukemia) was 1.99 µM. It also gave a TGI (HL-60(TB) leukemia) of 6.26 µM, a GI50 (HOP-62 NSCLC) of 1.11 µM and a TGI (HOP-62 NSCLC) of 7.74 µM. The GI50 (HOP-92 NSCLC) was 1.36 µM, the TGI (HOP-92 NSCLC) was 8.85 µM and the GI50 (HS 578T breast) was 1.57 µM. It also gave a TGI (HS 578T breast) of 5.76 µM, a GI50 (HT29 colon) of 0.76 µM and a TGI (HT29 colon) of 4.26 µM. The GI50 (IGROV1 ovarian) was 1.28 µM, the TGI (IGROV1 ovarian) was 10.2 µM and the GI50 (K-562 leukemia) was 1.55 µM. It also gave a TGI (K-562 leukemia) of 10.7 µM, a GI50 (KM12 colon) of 1.93 µM and a TGI (KM12 colon) of 9.8 µM. For the same molecule, the GI50 (LOX IMVI melanoma) was 0.748 µM, the TGI (LOX IMVI melanoma) was 3.68 µM and the GI50 (M14 melanoma) was 1.51 µM. It also gave a TGI (M14 melanoma) of 3.36 µM, a GI50 (MALME-3M melanoma) of 1.41 µM and a TGI (MALME-3M melanoma) of 2.74 µM. For the same molecule, the GI50 (MCF7 breast) was 1.41 µM, the TGI (MCF7 breast) was 7.14 µM and the GI50 (MDA-MB-231 breast) was 1.76 µM. For the same molecule, the TGI (MDA-MB-231 breast) was 9.91 µM, the GI50 (MDA-MB-435) was 1.61 µM and the TGI (MDA-MB-435) was 3.47 µM. It also gave a GI50 (MOLT-4 leukemia) of 0.555 µM and a TGI (MOLT-4 leukemia) of 9.9 µM.
